Source: ChEMBL document CHEMBL1201862, “PubChem BioAssay data set” (2004)
Calls of active or inactive are those of the source.

Assays:
[1] = molecular target: Sphingosine 1-phosphate receptor 2 (Homo sapiens, UniProt O95136); assay: Dose Response Cell Based Assay for Antagonists of the S1P2 Receptor. [Related pubchem assays: 856, 736 ]; format: functional
[2] = molecular target: Cytochrome P450 2C9 (Homo sapiens, UniProt P11712)
[3] = Shn3 3'UTR reporter inhibitors, dose response, cell-based, Clone20 osteoblasts, firefly luciferase, cherry-picked (AID 624132); format: functional;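 note: firefly luciferase luminescence from reporter carrying the Shn3 3'UTR in osteoblasts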
[4] = molecular target: T1, Short transient receptor potential channel 4 (Mus musculus, UniProt Q9QUQ5); assay: mouse TRPC4 channel activators, dose response, cell-based, HEK293 TRPC4/mu-opioid, Fluo-4 calcium (AID 434937); format: functional
T1 sequence (Q9QUQ5 whole entry): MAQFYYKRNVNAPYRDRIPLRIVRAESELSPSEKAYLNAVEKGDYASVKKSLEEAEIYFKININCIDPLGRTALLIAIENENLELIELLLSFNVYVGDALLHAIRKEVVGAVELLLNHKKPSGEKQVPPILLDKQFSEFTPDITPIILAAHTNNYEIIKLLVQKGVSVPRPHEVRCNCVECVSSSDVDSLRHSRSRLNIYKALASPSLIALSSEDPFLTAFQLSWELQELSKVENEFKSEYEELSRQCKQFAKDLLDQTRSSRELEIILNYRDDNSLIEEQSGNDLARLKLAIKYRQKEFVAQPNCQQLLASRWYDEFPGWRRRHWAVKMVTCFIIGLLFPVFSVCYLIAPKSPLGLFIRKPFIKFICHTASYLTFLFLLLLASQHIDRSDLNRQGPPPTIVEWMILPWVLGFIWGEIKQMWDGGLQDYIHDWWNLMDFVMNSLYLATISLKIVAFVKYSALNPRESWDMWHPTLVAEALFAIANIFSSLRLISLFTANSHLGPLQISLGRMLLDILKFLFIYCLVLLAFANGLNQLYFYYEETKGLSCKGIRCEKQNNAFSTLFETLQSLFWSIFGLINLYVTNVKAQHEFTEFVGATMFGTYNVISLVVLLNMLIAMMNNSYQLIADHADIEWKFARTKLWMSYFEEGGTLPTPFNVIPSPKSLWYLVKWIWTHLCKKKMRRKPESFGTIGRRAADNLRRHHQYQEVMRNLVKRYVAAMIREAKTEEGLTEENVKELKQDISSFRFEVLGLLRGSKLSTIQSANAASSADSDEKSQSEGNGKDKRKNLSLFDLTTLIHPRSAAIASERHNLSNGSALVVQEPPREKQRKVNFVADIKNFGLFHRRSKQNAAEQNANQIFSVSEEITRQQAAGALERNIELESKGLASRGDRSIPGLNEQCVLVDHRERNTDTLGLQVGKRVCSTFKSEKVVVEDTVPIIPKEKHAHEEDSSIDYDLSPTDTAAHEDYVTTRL

[5] = molecular target: Galanin receptor type 2 (Homo sapiens, UniProt O43603); assay: Dose Response cell-based high-throughput screening assay to identify antagonists of galanin receptor 2 (GALR2). [Related pubchem assays: 828, 866 ]; format: functional
Galanin receptor type 2, sequence (O43603 whole entry): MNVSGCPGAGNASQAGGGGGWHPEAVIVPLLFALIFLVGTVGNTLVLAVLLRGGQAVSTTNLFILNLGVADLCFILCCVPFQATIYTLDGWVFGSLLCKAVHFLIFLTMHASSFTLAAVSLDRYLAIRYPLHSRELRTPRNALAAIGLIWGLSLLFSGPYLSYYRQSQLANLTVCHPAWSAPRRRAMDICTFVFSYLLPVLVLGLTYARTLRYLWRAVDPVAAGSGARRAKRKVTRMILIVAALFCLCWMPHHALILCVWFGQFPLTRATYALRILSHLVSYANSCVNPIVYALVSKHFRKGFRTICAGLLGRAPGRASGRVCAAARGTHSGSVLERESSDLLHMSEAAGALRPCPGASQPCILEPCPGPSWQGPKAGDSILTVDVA

[6] = HepG2 cell cytotoxicity, dose response, cytotoxicity control for Shn3 inhibitor project, CellTiter-Glo, cherry-picked (AID 624134); format: functional, cell-based
[7] = system: INS1; assay: beta cell apoptosis inhibitors, cytokine rescue, dose response, luminescence, retest (AID 449756); format: functional, cell-based; settings: Rattus norvegicus;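 note: cell death triggered by IL-1 beta plus TNF-alpha plus IFN-gamma mixture; protective hits raise ATP signal compared with cytokine alone wells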
[8] = control 3'UTR Renilla luciferase suppression, dose response, counter-screen for Shn3 inhibitor project, cell-based, Clone20-Shn3RL, cherry-picked (AID 624133); format: functional
[9] = molecular target: T2, Heat shock factor protein 1 (Mus musculus, UniProt P38532); assay: HSF1 potentiators in luciferase reporter cells, confirmation, cell-based, NIH3T3, luminescence, dose retest (AID 435004); format: functional;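 note: stress induced by proteasome inhibitor MG132 added 30 min after compound; luciferase reporter driven by HSF1 response element in NIH3T3 cells; actives raise luminescence as potentiators of the MG132 stress response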
T2 sequence (P38532 whole entry): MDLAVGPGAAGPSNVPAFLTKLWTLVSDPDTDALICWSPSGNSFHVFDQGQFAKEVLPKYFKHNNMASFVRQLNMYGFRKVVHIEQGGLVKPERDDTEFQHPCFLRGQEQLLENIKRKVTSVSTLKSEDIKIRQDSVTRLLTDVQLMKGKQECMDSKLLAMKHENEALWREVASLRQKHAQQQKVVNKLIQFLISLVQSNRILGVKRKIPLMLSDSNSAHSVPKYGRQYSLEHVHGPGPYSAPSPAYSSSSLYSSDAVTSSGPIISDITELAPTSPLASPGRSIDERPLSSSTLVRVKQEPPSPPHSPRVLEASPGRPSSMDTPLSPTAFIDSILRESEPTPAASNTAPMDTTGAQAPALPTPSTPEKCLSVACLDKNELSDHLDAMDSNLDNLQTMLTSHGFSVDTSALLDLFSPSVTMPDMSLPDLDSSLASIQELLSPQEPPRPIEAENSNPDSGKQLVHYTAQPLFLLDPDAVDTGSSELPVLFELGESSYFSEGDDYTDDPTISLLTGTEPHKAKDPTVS

[10] = molecular target: Aryl hydrocarbon receptor (Homo sapiens, UniProt P35869); assay: Luminescence-based cell-based high throughput dose response assay for activators of the Aryl Hydrocarbon Receptor (AHR). [Related pubchem assays: 2796 (Primary screen (AHR activators in singlicate)), 2845 (Confirmation screen (AHR activators in triplicate)), 434939 (Counterscreen (PXR activators in triplicate)), 2804 (Summary (AHR activators))]; format: ADME
Aryl hydrocarbon receptor, sequence (P35869 whole entry): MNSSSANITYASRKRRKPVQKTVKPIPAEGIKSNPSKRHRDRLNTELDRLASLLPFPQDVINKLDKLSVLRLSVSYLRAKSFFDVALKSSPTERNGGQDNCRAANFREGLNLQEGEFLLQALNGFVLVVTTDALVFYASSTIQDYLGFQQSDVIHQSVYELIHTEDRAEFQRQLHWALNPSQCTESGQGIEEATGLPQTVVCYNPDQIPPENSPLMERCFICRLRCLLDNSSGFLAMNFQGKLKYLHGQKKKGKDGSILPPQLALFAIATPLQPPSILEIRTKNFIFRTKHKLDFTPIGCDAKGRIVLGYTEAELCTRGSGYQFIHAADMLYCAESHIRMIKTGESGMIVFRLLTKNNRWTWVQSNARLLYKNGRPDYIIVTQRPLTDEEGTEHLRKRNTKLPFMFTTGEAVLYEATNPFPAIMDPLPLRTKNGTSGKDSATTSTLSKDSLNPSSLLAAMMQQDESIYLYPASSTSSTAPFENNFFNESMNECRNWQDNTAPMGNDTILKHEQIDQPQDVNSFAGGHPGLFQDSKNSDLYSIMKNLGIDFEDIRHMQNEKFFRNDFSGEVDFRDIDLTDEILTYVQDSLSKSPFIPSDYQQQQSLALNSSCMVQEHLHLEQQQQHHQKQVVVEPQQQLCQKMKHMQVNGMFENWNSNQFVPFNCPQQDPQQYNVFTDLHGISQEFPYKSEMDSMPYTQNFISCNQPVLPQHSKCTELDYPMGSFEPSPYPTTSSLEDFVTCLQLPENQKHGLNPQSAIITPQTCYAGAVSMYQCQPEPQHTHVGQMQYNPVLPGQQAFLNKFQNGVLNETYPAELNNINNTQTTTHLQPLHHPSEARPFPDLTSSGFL

Sphingosine 1-phosphate receptor 2, sequence (O95136 whole entry): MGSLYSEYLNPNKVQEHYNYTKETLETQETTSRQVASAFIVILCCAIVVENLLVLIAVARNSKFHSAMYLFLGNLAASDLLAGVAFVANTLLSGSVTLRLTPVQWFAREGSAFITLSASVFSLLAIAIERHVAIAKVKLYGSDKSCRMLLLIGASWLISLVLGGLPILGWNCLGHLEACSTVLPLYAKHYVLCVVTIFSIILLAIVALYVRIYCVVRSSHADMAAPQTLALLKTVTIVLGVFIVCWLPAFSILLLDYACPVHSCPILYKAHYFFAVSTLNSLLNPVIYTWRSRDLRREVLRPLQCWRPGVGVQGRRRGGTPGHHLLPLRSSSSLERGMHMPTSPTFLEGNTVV
Cytochrome P450 2C9, sequence (P11712 whole entry): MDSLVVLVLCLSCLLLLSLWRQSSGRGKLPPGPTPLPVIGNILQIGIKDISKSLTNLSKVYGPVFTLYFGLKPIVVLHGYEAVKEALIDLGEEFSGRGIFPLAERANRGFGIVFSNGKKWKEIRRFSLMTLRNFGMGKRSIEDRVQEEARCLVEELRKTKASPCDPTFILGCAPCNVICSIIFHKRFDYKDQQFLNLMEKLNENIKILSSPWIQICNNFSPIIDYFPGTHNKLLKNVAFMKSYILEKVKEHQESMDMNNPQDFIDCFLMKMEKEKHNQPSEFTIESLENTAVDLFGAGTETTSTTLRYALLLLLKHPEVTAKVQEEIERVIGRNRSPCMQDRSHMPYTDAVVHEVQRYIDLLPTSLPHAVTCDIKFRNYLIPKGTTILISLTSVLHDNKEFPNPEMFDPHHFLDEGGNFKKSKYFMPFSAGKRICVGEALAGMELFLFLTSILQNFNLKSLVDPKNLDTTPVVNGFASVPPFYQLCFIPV

| EC50 [10] | SMILES | IC50 [1] | AC50 [2] | AC50 [3] | EC50 [4] | IC50 [5] | AC50 [6] | AC50 [7] | AC50 [8] | EC50 [9] |
| --- | --- | --- | --- | --- | --- | --- | --- | --- | --- | --- |
|  | Cc1ccc2[nH]c3c(N4CCc5ccccc5C4)ncnc3c2c1 | 3.63 µM (active) | 2.24 µM (inconclusive) | 1.18 µM (active) | 5.96 µM (active) | > 42 µM (not active) | 33.8 µM (active) | 1.38 µM (active) | < 0.26 µM (active) | 103 µM (active) |
| > 3.39 µM (active) | Cc1cccc2cc3c(N)c(C(=O)N4CCOCC4)sc3nc12 |  |  |  |  |  |  |  |  | > 260 µM (inactive) |
